In paper PMC2933614, “Quantitative in vitro and in vivo pharmacological profile of CE-178253, a potent and selective cannabinoid type 1 (CB1) Receptor Antagonist” (BMC Pharmacology, 2010):

Legend:
[1] = Fast-induced re-feeding food intake; type: in vivo, rat; settings: for Food Intake % decrease (mean ± SEM): 2 hr after return of food
Text: All animal studies were approved by the Institutional Animal Care and Use Committee. Male Sprague Dawley rats on normal chow (8 weeks old, 250-300 g on arrival, 300-350 g on test day) were obtained from Charles River. After arrival, animals were individually housed and placed on powdered rat chow. Rats were maintained on a 12-hr light/dark cycle and received food and water ad libitum. In all studies CE-178253 and veh (0.5% methyl cellulose) administration to rats and mice was by oral gavage.
For the fast-induced re-feeding assay, food was removed from the cages the afternoon preceding the test day and the rats were fasted overnight. After the overnight fast, rats were administered veh. or CE-178253. […]
Administration of CE-178253 to male S-D rats inhibited overnight fast-induced refeeding. S-D rats were fasted overnight and veh. (0.5% methylcellulose; MC) or CE-178253 was administered orally. Food was provided to the rats 30 min after dosing. Food intake was measured 30 min and 2 hr after return of food. Dose- and unbound plasma concentration-dependent decreases in cumulative FI versus veh. were observed (Figure 4A, B, Table 3) at both time points after return of food. However, the efficacy (as a percent) was greater in the 0.5-2 hr interval than in the first 0.5 interval. In contrast, FI efficacy in the dark-phase feeding was consistent throughout the first four hr (Figure 3B).

[2] = Four day chow-fed rat food intake and body weight study; type: in vivo; settings: chow-fed rats
Experimental: CE-178253 was evaluated in 4-day chow-fed and DIO S-D rat studies. Male 12-16 week old S-D rats which had been maintained on regular chow were singly housed and acclimated to handling and dosing and two days of food intake were recorded to establish baseline food intake values before dosing was initiated. The animals were randomly sorted and assigned to treatment groups (n = 7-8 per group). Two studies were performed. In study 1 (age = 12 weeks) the mean starting weight of all animals was 370 ± 6 g. In study 2 (age = 16 weeks) the mean starting weight of all animals was 431 ± 11 g. Rats were dosed (2 mls/kg) with veh. or CE-178253 according to body weight. FI and BW were recorded daily.
CE-178253 was also evaluated in chow-fed rats in a 4 day FI and BW study. Rats were treated once daily with veh. (0.5% MC) or CE-178253. In the first study the same doses used in the DIO study were used to compare FI and BW efficacy. […] CE-178253 was clearly efficacious in acute food intake studies in chow-fed rats up to 12 hours (Figure 3). A comparison of 24 hr FI in chow-fed and DIO rats yielded different efficacy in response to CE-178253 treatment. The 1 mg/kg dose yielded an 8% decrease in 24 hr FI compared to veh-treated animals (p = 0.053). […] Initial and final body weights of veh-treated rats were 371 ± 7 g and 390 ± 7 g (n = 8), respectively. Initial and final body weights of 0.3 mg/kg CE-178253-treated rats were 374 ± 7 g and 388 ± 9 g, respectively. Initial and final body weights of 1 mg/kg CE-178253-treated rats were 373 ± 7 g and 390 ± 9 g, (respectively.
Based on the weak efficacy observed at the 0.3 and 1 mg/kg doses the study was repeated using higher doses of CE-178253 (Figures 7A and 7B). At 3 and 10 mg/kg (QD, p.o.) doses, statistically significant decreases in FI and BW were observed. Initial and final body weights of veh.-treated rats were 435 ± 11 g and 451 ± 12 g (n = 8), respectively, […]. Initial and final body weights of 3 mg/kg CE-178253-treated rats were 436 ± 9 g and 427 ± 9 g, respectively, a 2% decline. Initial and final body weights of 10 mg/kg CE-178253-treated rats were 435 ± 11 g and 430 ± 10 g, respectively, […]. […] Thus, as has been reported for other CB1 receptor antagonists it is likely that DIO rats are more sensitive to the anorectic and weight loss effect of CE-178253.

brain CB1 receptor = target: T1, brain CB1 receptor (Rattus norvegicus, UniProt P20272); assay: Ex vivo brain receptor occupancy; type: in vivo
T1 construct: Brain homogenates were prepared by adding TME buffer to pre-weighed tissue; from tissue; host or cells: brain homogenate of Sprague Dawley rats dosed p.o
Experimental: An ex vivo brain receptor occupancy assay was used to calculate the in vivo receptor occupancy of CE-178253 at selected doses. […] Brains were removed from the rats 2 hr after return of food. […] The homogenate was diluted to a concentration of 2 mg/mL using TME buffer. […] The plates were then covered and incubated for 90 min at room temperature on a plate shaker. Reactions were stopped by the addition of 100 μL ice cold 7.5% BSA in TME. The plates were aspirated then harvested onto GF/C filter plates (Perkin Elmer Life Sciences; Boston, MA) using ice-cold TME buffer. The filter plates had been pre-soaked in 50 μL 0.5% BSA in TME for 60 min. Filters were dried at room temperature for 30 min, after which 25 μL of Microscint™ (Perkin Elmer Life Sciences; Boston, MA) was added to each and the plates analyzed on a Microbeta counter. Care was taken in our assay to minimize drug-tissue dissociation by comparing binding in a time course and under various conditions. […] Experiments were run in triplicate with at least an n = 3 for each treatment group.

human CB1 in CHO cells = target: T2, human CB1 in CHO cells (Homo sapiens, UniProt P21554); assay: GTPγ[35S] inverse agonist assay; type: biochemical
T2 construct: expressed in transfected cells
Experimental: GTPγ[^35S] binding assays were performed as described. GTPγ[^35S] binding assays were performed in a 96-well FlashPlate™ format in duplicate using 100 pM GTPγ[^35S] and 10 μg membrane per well in assay buffer composed of 50 mM Tris HCl (pH 7.4); 3 mM MgCl2 (pH 7.4); 10 mM MgCl2, 20 mM EGTA, 100 mM NaCl, 30 μM GDP, 0.1% BSA and the following protease inhibitors: 100 μg/ml bacitracin, 100 μg/ml benzamidine, 5 μg/ml aprotinin, and 5 μg/ml leupeptin. […] Assays were performed at 30°C for 1 hr. The FlashPlates™ were then centrifuged at 2000×g for 10 min. Stimulation of GTPγ[^35S] binding was then quantified using a Wallac Microbeta® [16].

T1 sequence (P20272 whole entry): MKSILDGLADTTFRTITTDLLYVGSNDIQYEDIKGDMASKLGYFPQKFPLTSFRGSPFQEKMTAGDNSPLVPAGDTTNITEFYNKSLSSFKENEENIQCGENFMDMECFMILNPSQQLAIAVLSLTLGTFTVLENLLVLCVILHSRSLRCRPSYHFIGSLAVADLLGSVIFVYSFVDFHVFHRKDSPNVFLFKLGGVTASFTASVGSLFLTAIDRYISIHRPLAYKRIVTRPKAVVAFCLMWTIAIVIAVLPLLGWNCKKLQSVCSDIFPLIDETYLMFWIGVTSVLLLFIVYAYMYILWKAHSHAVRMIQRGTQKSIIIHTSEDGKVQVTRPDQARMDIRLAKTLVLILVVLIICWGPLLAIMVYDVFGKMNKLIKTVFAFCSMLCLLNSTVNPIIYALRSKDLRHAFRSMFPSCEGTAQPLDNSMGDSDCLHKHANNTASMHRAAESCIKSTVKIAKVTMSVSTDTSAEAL
T2 sequence (P21554 whole entry): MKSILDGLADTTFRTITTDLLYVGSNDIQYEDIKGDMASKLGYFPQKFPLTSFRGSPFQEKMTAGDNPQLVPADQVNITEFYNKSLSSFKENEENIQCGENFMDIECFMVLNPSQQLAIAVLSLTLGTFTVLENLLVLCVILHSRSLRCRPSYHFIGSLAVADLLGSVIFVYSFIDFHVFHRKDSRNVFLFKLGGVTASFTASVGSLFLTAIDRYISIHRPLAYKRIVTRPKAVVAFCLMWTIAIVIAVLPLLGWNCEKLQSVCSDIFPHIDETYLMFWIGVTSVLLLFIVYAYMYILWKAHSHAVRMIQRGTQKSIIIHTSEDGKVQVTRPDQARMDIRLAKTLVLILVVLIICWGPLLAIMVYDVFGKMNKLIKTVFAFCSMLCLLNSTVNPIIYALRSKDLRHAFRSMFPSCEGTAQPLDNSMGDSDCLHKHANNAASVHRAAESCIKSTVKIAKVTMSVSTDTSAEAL

EC50 ([1]; Rattus norvegicus, […], read-out: EC50, reduction of food intake): 0.95 nM
Receptor occupancy required for maximum efficacy (brain CB1 receptor; calculated, energy intake and expenditure models): 50-75%
receptor occupancy at 0.3 mg/kg (brain CB1 receptor; rat, po, 0.3 mg/kg p.o., brains removed 2 hr after return of food, read-out: % Receptor Occupancy (mean ± S-D)): 27 ± 12%
receptor occupancy at 1 mg/kg (brain CB1 receptor; rat, po, 1 mg/kg p.o., brains removed 2 hr after return of food, read-out: % Receptor Occupancy (mean ± S-D)): 64 ± 2%
receptor occupancy at 3 mg/kg (brain CB1 receptor; rat, po, 3 mg/kg p.o., brains removed 2 hr after return of food, read-out: % Receptor Occupancy (mean ± S-D)): 78 ± 6%
receptor occupancy at 10 mg/kg (brain CB1 receptor; rat, po, 10 mg/kg p.o., brains removed 2 hr after return of food, read-out: % Receptor Occupancy (mean ± S-D)): 82 ± 2%
Inverse agonist potency weaker than binding potency (human CB1 in CHO cells): 6 fold
Inverse agonist potency weaker than functional potency (human CB1 in CHO cells): 29 fold
IC50 (human CB1 in CHO cells; decrease in basal GTPγ[35S] binding): 2 ± 0.56 nM
Emax (human CB1 in CHO cells; percent decrease in basal GTPγ[35S] binding, read-out: Intrinsic Activity): 21%
Compound: CCNC1(C(N)=O)CN(c2nc(C)nc3c(-c4ccc(Cl)cc4)c(-c4ccccc4Cl)nn23)C1 [CE-178253]
Food Intake % decrease (mean ± SEM) ([1]; 0.3 mg/kg p.o.): 6 ± 3%
Food Intake % decrease (mean ± SEM) ([1]; 1 mg/kg p.o.): 25 ± 11%
Food Intake % decrease (mean ± SEM) ([1]; 3 mg/kg p.o.): 62 ± 5.2 %
Food Intake % decrease (mean ± SEM) ([1]; 10 mg/kg p.o.): 75 ± 6.2 %
Reduction in FI ([1]; interval between dosing and return of food extended to 2 hr, at 50% receptor occupancy, p < 0.05): 27%
Maximal FI reduction ([1]; two hr): 70%
Final body weight ([2]; 0.3 mg/kg, 4 day, initial 374 ± 7 g): 388 ± 9 g
Final body weight ([2]; 1 mg/kg, 4 day, initial 373 ± 7 g): 390 ± 9 g
Decrease in 24 hr FI compared to veh-treated animals ([2]; 1 mg/kg, p = 0.053): 8%
Decline in body weight, initial to final ([2]; 3 mg/kg QD p.o., 4 day): 2%
Final body weight ([2]; 3 mg/kg QD p.o., 4 day, initial 436 ± 9 g): 427 ± 9 g
Increase in body weight, initial to final ([2]; 10 mg/kg QD p.o., 4 day): 1%
Final body weight ([2]; 10 mg/kg QD p.o., 4 day, initial 435 ± 11 g): 430 ± 10 g
BW changes vs veh ([2]; 0.3 and 1 mg/kg dosing groups, 4 day): No statistically significant differences
